The text below walks through data of PMC11538690, “Lysosome‐Targeted Bifunctional Therapeutics Induce Autodynamic Cancer Therapy” (Advanced Science, 2024).

The subject of data set [1] is HT29 tumor-bearing mice. The data set is described as follows: In vivo tumor reduction test. Conditions: i.v. 50 nmol (9.5 mg kg−1) twice; weighed every other day for 30 days; versus control group. Here is the method: Owing to the cancer‐specific cytotoxicity of ZWPro, the in vivo tumor targetability and theranostic capacity of ZWPro were evaluated in HT29 tumor‐bearing mice. Preliminary studies were conducted to determine the optimal dosage of ZWPro to achieve effective anticancer activity. […] To investigate the antitumor impact, mice were intravenously injected with PBS (150 µL) (control group), and with ZWPro (150 µL) or ZW (150 µL, 50 nmol at 9.5 mg k^−1g). […] The tumor size increased slightly after the treatment on d 0. […] Stable mouse body weights were observed across all experimental groups. After 30 d of treatment with ZWPro, tumors were smaller than those in the ZW and PBS groups (Figure 4g).
Figure 4 In vivo, tumor growth inhibition and studies in tumor‐induced mice subcutaneously injected with HT29 cells and treated with ZWPro. a) Schematic of the treatment schedule and experimental design of PBS, ZW, and ZWPro. […] PK parameters of ZW and ZWPro (0.3 µmol kg^−1) (t1/2α; distribution half‐life, t1/2β; elimination half‐life, AUC; area under the curve, Vd volume of distribution, and urinary excretion (% injected dose, %ID)) were calculated using the software Prism 9. […] (Exposure time = 100 ms, n = 3, mean ± s.e.m.) The SBR was calculated by the fluorescence intensity of each organ (Or) against the system background (Exposure time = 1000 ms, n = 3, mean ± s.e.m.). […]

Data set [2] concerns L929 cells. The data set can be described thus: Cellular uptake by fluorescence microscopy. It is filed as cell-based, mouse. Conditions: 20 µM, 2 h, 37 °C; NIR fluorescence microscopy. The protocol:
(§1) Figure 2 In vitro cellular evaluations of ZWPro in cancer cells. a) Cytotoxicity assay showing HT29, MCF7, L929, and NIH3T3 cells treated with 20 µM of ZW and ZWPro for 2 and 24 h, respectively, followed by an assessment of cell viability using the water‐soluble tetrazolium assay (n = 5, mean ± s.e.m.). b) Cellular uptake and intracellular endosomal localization of ZW and ZWPro were observed by treating HT29 and L929 cells with 20 µM of ZW and ZWPro. […] The internalization index was determined in 2–9 photographic areas (ns, not significant, *p < 0.05 based on two‐way analysis of variance followed by Bonferroni's multiple comparison test). c) Inhibition assay of cellular uptake of ZWPro to determine the entry mechanisms in HT29 cells. Cultured cells were incubated with bromsulphthalein for 20 min and then incubated with ZWPro (20 µM) in media for 15 min. […] The co‐localizing pixels (%) were calculated by dividing the area of overlap between ZWPro and LysoTracker by the total area of the LysoTracker, respectively. […]
(§2) Fluorescence microscopic assessments were performed to compare the intracellular uptake of ZW and ZWPro in cancerous and normal cells. […] The fluorescent intensity of each cell was measured using ImageJ (version 1.51j8, National Institutes of Health, Bethesda, MD, USA). The outline of each cell was determined on a phase‐contrast image.

A further data set deals with NIH3T3 cells. The data set is described as follows: Cellular uptake by fluorescence microscopy. Conditions: 20 µM, 2 h, 37 °C; fluorescent microscopy. It is filed as cell-based, mouse. The protocol:
(§3) Fluorescence microscopic assessments were performed to compare the intracellular uptake of ZW and ZWPro in cancerous and normal cells. Two sets of cathepsin B‐expressing cancer cells (HT29 and MCF7) and 2 sets of normal cells (L929 and NIH3T3) were seeded in a confocal dish and incubated at 37 °C for 1 d before treatment. Subsequently, 20 µM ZWPro and ZW were added to the cells for 2 h. Subsequently, 50 nM of LysoTracker Green (a fluorescent dye that selectively labels lysosomes) was added for 30 min. Following incubation with the dye, the cells were resuspended with fresh media after they were rinsed 3 times with 1X PBS to remove any remaining dye, and imaging was performed. To determine the role of organic anion transporter peptides (OATPs) in the ZWPro uptake process, HT29 cells were pretreated with BSP (250 µM, Sigma–Aldrich, 167 207) for 20 min in the inhibition assay. Cells were then incubated with 20 µM of ZWPro at 37 °C for 15 min. After washing, cell images were obtained. Images were obtained using a Nikon Eclipse inverted microscope, DS‐Ri2, or DS‐Qi2 (Ex/Em, 754/774 nm; exposure time, 2 s). The fluorescent intensity of each cell was measured using ImageJ (version 1.51j8, National Institutes of Health, Bethesda, MD, USA). The outline of each cell was determined on a phase‐contrast image.
(§4) Figure S5. Cellular uptake and intracellular localization of ZW and ZWPro. […]

The nature of data set [3]: Photostability test under 760 nm laser. The class given is physicochemical. The following applies: all tested solvents, up to 4 h. Here is the method:
Photostability assay was conducted to compare ZW800‐1C with ZWPro in PBS and also evaluated ZWPro in distilled water and 10% FBS in PBS exposed to continuous irradiation using a 760 nm laser diode at 4 mW cm^−2, with white light (400–650 nm) at 40 000 lux and imaged up to 4 h. The fluorescence intensity (FI) signal (%) was calculated by measured values with ImageJ version 1.53t using images captured at each time point. Fluorescence values of the quenching assay were conducted at different concentration points at 0 and 4 h to determine the quenching concentration and to assess any significant photodegradation or photobleaching effects.
The data, presented as mean ± SD, assessed the fluorescence image by measuring regions of interest (ROI) and comparing fluorescence intensity against the initial fluorescence signal.
Figure S3. Optical property characterization of the ZWPro (a) Absorbance and Fluorescence spectra of ZWPro and optical properties of Pro, ZW800-1C, and ZWPro. (b) Stability test of ZWPro with PBS and 10% FBS in PBS until 24 h at 37 °C incubator. (c) Fluorescence image and value are used to determine quenching concentration under a 760nm channel of different concentrations of ZWPro depending on time. Photostability test of (d) ZW800-1C and ZWPro in PBS. (e) Photostability test of ZWPro in different solvents. DW: Distilled water, 10% FBS: Fetal bovine serum in PBS. […]

Data set [4] has as its system HT29 tumor-bearing mice. The data set is described as follows: Time-dependent in vivo NIR tumor imaging and biodistribution. The following applies: 20 nmol i.v., real-time NIR fluorescence imaging. The text has this: Figure 4 In vivo, tumor growth inhibition and studies in tumor‐induced mice subcutaneously injected with HT29 cells and treated with ZWPro. a) Schematic of the treatment schedule and experimental design of PBS, ZW, and ZWPro. Biodistribution and pharmacokinetic (PK) parameters of targeted ZW and ZWPro in normal mice. PK parameters of ZW and ZWPro (0.3 µmol kg^−1) (t1/2α; distribution half‐life, t1/2β; elimination half‐life, AUC; area under the curve, Vd volume of distribution, and urinary excretion (% injected dose, %ID)) were calculated using the software Prism 9. Urinary excretion occurred at 48 h post‐injection (n = 2–3 per group, mean ± s.e.m.). (b) In total, 20 nmol of each compound was injected into BLAB/C nude mice (weights = 20–25 g) and time‐dependent imaging was performed post‐injection. c) Color and NIR fluorescence in vivo images of ZW and ZWPro (0.3 µmol kg^−1) were taken at different time intervals. d) Tumor‐to‐background (TBR) ratios of tumors (white dotted circles in (c)) compared with muscles obtained from at each time point; and e) signal‐to‐background (SBR) outcomes were calculated using NIR images of resected organs at 48 h post‐injection. (Exposure time = 100 ms, n = 3, mean ± s.e.m.) The SBR was calculated by the fluorescence intensity of each organ (Or) against the system background (Exposure time = 1000 ms, n = 3, mean ± s.e.m.). […]

The subject of data set [5] is HT29 cells. The data set can be described thus: Cellular uptake by fluorescence microscopy. The class given is cell-based, human. The following applies: 20 µM, 2 h, 37 °C; NIR fluorescence microscopy. Here is the method:
as §1, §2

Data set [6] deals with MCF7 cells. The data set can be described thus: WST-8 cytotoxicity assay. The class given is cell-based. The following applies: 5, 10 and 20 µM, 24 h (Figure S4); n = 5. Here is the method:
as §1, with “cells.” for “cells. Cultured cells were incubated with bromsulphthalein for 20 min and then incubated with ZWPro (20 µM) in media for 15 min.”
(§5) To evaluate the cytotoxicity of ZW and ZWPro in cancer and normal cells, HT29, MCF7, L929, and NIH 3T3 cells were collected by trypsinization and resuspended in 96‐well plates at a concentration of 10 000 cells/well in fresh growth media and incubated for 1 d at 37 °C under 5% CO2 conditions. […] Absorption was subsequently measured at 450 nm on a microplate reader (Thermo Scientific, Varioskan LUX multimode). […]
A general note: Tetrazolium dyes change colour on reduction, which living cells bring about.

Data set [7] has as its system HT29 cells. The data set is described as follows: WST-8 cytotoxicity assay. The following applies: 5, 10 and 20 µM, 24 h (Figure S4); n = 5. The class given is cell-based, human. The protocol:
as §1, with “cells.” for “cells. Cultured cells were incubated with bromsulphthalein for 20 min and then incubated with ZWPro (20 µM) in media for 15 min.”
as §5

For data set [8] the following is noted: cited from earlier work. The text has this:
The zwitterionic fluorophore ZW (emitting NIR fluorescence at 800 nm) was synthesized as reported previously.^[ [6] ^] […] To create the ZWPro conjugate, ZW (1.2 equiv.) was covalently attached to Pro using N‐Hydroxysuccinimide (NHS) ester and led to a stable amide bond formation (Figure 1b). Pro peptides were en ...

In data set [9] the test system is L929 cells. The data set can be described thus: WST-8 cytotoxicity assay. It is filed as cell-based, mouse. Conditions: 5, 10 and 20 µM, 24 h (Figure S4); n = 5. Here is the method:
(§6) Figure 2 In vitro cellular evaluations of ZWPro in cancer cells. a) Cytotoxicity assay showing HT29, MCF7, L929, and NIH3T3 cells treated with 20 µM of ZW and ZWPro for 2 and 24 h, respectively, followed by an assessment of cell viability using the water‐soluble tetrazolium assay (n = 5, mean ± s.e.m.). b) Cellular uptake and intracellular endosomal localization of ZW and ZWPro were observed by treating HT29 and L929 cells with 20 µM of ZW and ZWPro. […] The internalization index was determined in 2–9 photographic areas (ns, not significant, *p < 0.05 based on two‐way analysis of variance followed by Bonferroni's multiple comparison test). c) Inhibition assay of cellular uptake of ZWPro to determine the entry mechanisms in HT29 cells. Cultured cells were incubated with bromsulphthalein for 20 min and then incubated with ZWPro (20 µM) in media for 15 min. Data are presented as means ± standard deviations (n = 7–8) **p < 0.01 based on Welch's t‐test. d) Findings from HT29 human colorectal adenocarcinoma cells and L929 fibroblast cell lines co‐stained with the lysosome marker LysoTracker Green. Co‐localization occurs at specific time intervals during imaging. The co‐localizing pixels (%) were calculated by dividing the area of overlap between ZWPro and LysoTracker by the total area of the LysoTracker, respectively. Scale bars: 10 µm.
(§7) To evaluate the cytotoxicity of ZW and ZWPro in cancer and normal cells, HT29, MCF7, L929, and NIH 3T3 cells were collected by trypsinization and resuspended in 96‐well plates at a concentration of 10 000 cells/well in fresh growth media and incubated for 1 d at 37 °C under 5% CO2 conditions. After the cells were completely attached to the walls, the original medium was discarded and replaced with a 200 µL fresh culture medium which contained different concentrations of ZW and ZWPro. Cells were then cultured in a constant temperature incubator for 2 and 24 h. EZ‐Cytox solution (10%) was then added to each well, and the plates were incubated at 37 °C in a 5% CO2 incubator for 2 h in the dark. Cells were then exposed to a digital orbital shaker (Scilab Instruments Co, No. SSO‐2D) at 200 rpm. Absorption was subsequently measured at 450 nm on a microplate reader (Thermo Scientific, Varioskan LUX multimode). […] Statistical analysis was conducted using the software GraphPad Prism 8.

Another data set relates to NIH 3T3 cells. The data set can be described thus: WST-8 cytotoxicity assay. The class given is cell-based, mouse. Conditions: 5, 10 and 20 µM, 24 h (Figure S4); n = 5. The protocol:
as §6, §7

The subject of data set [10] is MCF7 cells. The data set is described as follows: Cellular uptake by fluorescence microscopy. The class given is cell-based. The following applies: 20 µM, 2 h, 37 °C; fluorescent microscopy. Here is the method: as §3, §4

Take `CC1(C)C(/C=C/C2=C(c3ccc(CCC(=O)O)cc3)C(=C/C=C3/N(CCC[N+](C)(C)C)c4ccc(S(=O)(=O)O)cc4C3(C)C)/CCC2)=[N+](CCC[N+](C)(C)C)c2ccc(S(=O)(=O)O)cc21` [ZW, ZW800‐1C]: the “body weight change (in words)” value with HT29 tumor-bearing mice [1] is “neither ZWPro nor ZW resulted in weight loss”. Besides, the “cellular uptake / internalization (in words)” value was “not internalized” with L929 cells [2], “does not show internalization” with NIH3T3 cells, “not internalized” with HT29 cells [5] and “does not show internalization” in the data set on MCF7 cells [10]. Also, the “photostability (in words)” value in [3] was “strong photostability”. Also, the “tumor targeting / accumulation (in words)” value with HT29 tumor-bearing mice [4] is “no tumor specificity or cell penetration ability”. For the same molecule, the “toxicity (in words)” value in the data set on MCF7 cells [6], in the data set on HT29 cells [7], in the data set on L929 cells [9] and with NIH 3T3 cells was “negligible toxicity” in each case. Also, the “plasma protein binding (in words)” value in [8] is listed as “low‐plasma protein binding”.
Protamine: the “toxicity (in words)” value in the data set on MCF7 cells [6], in the data set on HT29 cells [7], with L929 cells [9] and in the data set with NIH 3T3 cells was “negligible toxicity” each time.
